Measured values as given in paper PMC10893631, “Receptor-based pharmacophore modeling, molecular docking, synthesis and biological evaluation of novel VEGFR-2, FGFR-1, and BRAF multi-kinase inhibitors” (BMC Chemistry, 2024).
Read-outs that look alike come from different tables or passages of the source.

Columns and labels:
Type in all cases: cell-based, human
[1] = tested on: NCI panel of 60 tumor cell lines; assay: NCI SRB growth inhibition, whole panel mean (single dose 10 µM / five-dose); details: for GI50: mean over NCI cancer cell lines, five-dose
Summary of the method: (§1)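 Test agents were dissolved in DMSO at 400-fold the top final concentration, diluted in medium with 50 µg/mL gentamicin, and tested at five concentrations.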

[2] = tested on: UO-31; assay: NCI SRB growth inhibition (single dose 10 µM / five-dose); details: for GI50: UO-31, Renal cancer, five-dose; for inhibition at 10 µM: read-out: GI%
Summary of the method: as §1

[3] = tested on: CAKI-1; assay: as above; details: for GI50: CAKI-1, Renal cancer, five-dose; for inhibition at 10 µM: read-out: GI%
Summary of the method: as §1

[4] = tested on: SR; assay: as above; details: for GI50: SR, Leukemia, five-dose; for inhibition at 10 µM: read-out: GI%
Summary of the method: as §1

[5] = tested on: OVCAR-5; assay: as above; details: for GI50: OVCAR-5, Ovarian cancer, five-dose; for inhibition at 10 µM: read-out: GI%
Summary of the method: as §1

[6] = tested on: MOLT-4; assay: as above; details: for GI50: MOLT-4, Leukemia, five-dose; for inhibition at 10 µM: read-out: GI%
Summary of the method: as §1

[7] = tested on: SW-620; assay: as above; details: for GI50: SW-620, Colon cancer, five-dose; for inhibition at 10 µM: read-out: GI%
Summary of the method: as §1

[8] = tested on: MDA-MB-468; assay: as above; details: for GI50: MDA-MB-468, Breast cancer, five-dose; for inhibition at 10 µM: read-out: GI%
Summary of the method: as §1

[9] = tested on: HL-60(TB); assay: as above; details: for GI50: HL-60(TB), Leukemia, five-dose; for inhibition at 10 µM: read-out: GI%
Summary of the method: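 TCA fixation ends the assay for adherent lines; unbound SRB is rinsed off five times with 1% acetic acid. Drug is added from a DMSO concentrate at 400× the maximum final concentration, made up to 2× in gentamicin-containing medium, then halved on addition to wells.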

[10] = tested on: OVCAR-8; assay: as above; details: for GI50: OVCAR-8, Ovarian cancer, five-dose; for inhibition at 10 µM: read-out: GI%
Summary of the method: as §1

[11] = tested on: HCT-116; assay: as above; details: for inhibition at 10 µM: read-out: GI%
Summary of the method: as §1

[12] = tested on: 786–0; assay: as above; details: for GI50: 786–0, Renal cancer, five-dose; for inhibition at 10 µM: read-out: GI%
Summary of the method: as §1

[13] = tested on: HS 578 T; assay: as above; details: for GI50: HS 578 T, Breast cancer, five-dose; for inhibition at 10 µM: read-out: GI%
Summary of the method: as §1

[14] = tested on: COLO 205; assay: as above; details: for GI50: COLO 205, Colon cancer, five-dose; for inhibition at 10 µM: read-out: GI%
Summary of the method: as §1

[15] = tested on: UACC-62; assay: as above; details: for GI50: UACC-62, Melanoma, five-dose; for inhibition at 10 µM: read-out: GI%
Summary of the method: as §1

[16] = tested on: SF-539; assay: as above; details: for GI50: SF-539, CNS cancer, five-dose; for inhibition at 10 µM: read-out: GI%
Summary of the method: as §1

[17] = tested on: A549/ATCC; assay: as above; details: for GI50: A549/ATCC, Non-small cell lung cancer, five-dose; for inhibition at 10 µM: read-out: GI%
Summary of the method: as §1

[18] = tested on: UACC-257; assay: as above; details: for GI50: UACC-257, Melanoma, five-dose; for inhibition at 10 µM: read-out: GI%
Summary of the method: as §1

[19] = tested on: MCF7; assay: as above; details: for GI50: MCF7, Breast cancer, five-dose; for inhibition at 10 µM: read-out: GI%
Summary of the method: as §1

[20] = tested on: BT-549; assay: as above; details: for GI50: BT-549, Breast cancer, five-dose; for inhibition at 10 µM: read-out: GI%
Summary of the method: as §1

[21] = tested on: TK-10; assay: as above; details: for GI50: TK-10, Renal cancer, five-dose; for inhibition at 10 µM: read-out: GI%
Summary of the method: as §1

[22] = tested on: HCC-2998; assay: as above; details: for GI50: HCC-2998, Colon cancer, five-dose; for inhibition at 10 µM: read-out: GI%
Summary of the method: as §1

[23] = tested on: MALME-3 M; assay: as above; details: for GI50: MALME-3 M, Melanoma, five-dose; for inhibition at 10 µM: read-out: GI%
Summary of the method: as §1

[24] = Homo sapiens, 10 µM, mean over NCI 60 cell lines, > 100% = lethal effect, read-out: mean growth inhibition % (GI%)
[25] = Homo sapiens, mean over NCI panel of 60 tumor cell lines, 10 µM, read-out: Mean growth inhibition %
[26] = Homo sapiens, UO-31 (Renal cancer), 10 µM
[27] = Homo sapiens, CAKI-1 (Renal cancer), 10 µM
[28] = Homo sapiens, SR (Leukemia), 10 µM
[29] = Homo sapiens, OVCAR-5 (Ovarian cancer), 10 µM
[30] = Homo sapiens, MOLT-4 (Leukemia), 10 µM
[31] = Homo sapiens, SW-620 (Colon cancer), 10 µM
[32] = Homo sapiens, MDA-MB-468 (Breast cancer), 10 µM
[33] = Homo sapiens, HL-60(TB) (Leukemia), 10 µM
[34] = Homo sapiens, OVCAR-8 (Ovarian cancer), 10 µM
[35] = Homo sapiens, 786–0 (Renal cancer), 10 µM
[36] = Homo sapiens, HS 578 T (Breast cancer), 10 µM
[37] = Homo sapiens, COLO 205 (Colon cancer), 10 µM
[38] = Homo sapiens, UACC-62 (Melanoma), 10 µM
[39] = Homo sapiens, SF-539 (CNS cancer), 10 µM
[40] = Homo sapiens, A549/ATCC (Non-small cell lung cancer), 10 µM
[41] = Homo sapiens, UACC-257 (Melanoma), 10 µM
[42] = Homo sapiens, MCF7 (Breast cancer), 10 µM
[43] = Homo sapiens, BT-549 (Breast cancer), 10 µM
[44] = Homo sapiens, TK-10 (Renal cancer), 10 µM
[45] = Homo sapiens, HCC-2998 (Colon cancer), 10 µM
[46] = Homo sapiens, MALME-3 M (Melanoma), 10 µM

N'-(2-Hydroxybenzylidene)-2-phenyl-1H-benzo[d]imidazole-5-carbohydrazide [8a]
mean growth inhibition % (GI%) ([1]; 10 µM, mean over NCI 60 cell lines, > 100% = lethal effect): 97.73% | GI50 [1]: 3 µM | Mean growth inhibition % ([1]; mean over NCI panel of 60 tumor cell lines, 10 µM): 97.73% | GI% ([2]; UO-31 (Renal cancer), 10 µM): 86.22% | GI50 [2]: 0.6 µM | GI% ([3]; CAKI-1 (Renal cancer), 10 µM): L (GI% > 100) | GI50 [3]: 3.48 µM | GI% ([4]; SR (Leukemia), 10 µM): 92.31% | GI50 [4]: 1.68 µM | GI% ([5]; OVCAR-5 (Ovarian cancer), 10 µM): 77.04% | GI50 [5]: 8.5 µM | GI% ([6]; MOLT-4 (Leukemia), 10 µM): 89.54% | GI50 [6]: 1.62 µM | GI% ([7]; SW-620 (Colon cancer), 10 µM): 77.39% | GI50 [7]: 3.48 µM | GI% ([8]; MDA-MB-468 (Breast cancer), 10 µM): 99.81% | GI50 [8]: 3.45 µM | GI% ([9]; HL-60(TB) (Leukemia), 10 µM): 95.58% | GI50 [9]: 3.08 µM | GI% ([10]; OVCAR-8 (Ovarian cancer), 10 µM): L (GI% > 100) | GI50 [10]: 2.49 µM | GI% ([11]; HCT-116 (Colon cancer), 10 µM): L (GI% > 100) | GI50 ([11]; HCT-116, Colon cancer, five-dose): 0.88 µM | GI% ([12]; 786–0 (Renal cancer), 10 µM): 91.76% | GI50 [12]: 3.84 µM | GI% ([13]; HS 578 T (Breast cancer), 10 µM): L (GI% > 100) | GI50 [13]: 2.49 µM | GI% ([14]; COLO 205 (Colon cancer), 10 µM): L (GI% > 100) | GI50 [14]: 1.97 µM | GI% ([15]; UACC-62 (Melanoma), 10 µM): 75.88% | GI50 [15]: 3.66 µM | GI% ([16]; SF-539 (CNS cancer), 10 µM): L (GI% > 100) | GI50 [16]: 2.74 µM | GI% ([17]; A549/ATCC (Non-small cell lung cancer), 10 µM): L (GI% > 100) | GI50 [17]: 3.41 µM | GI% ([18]; UACC-257 (Melanoma), 10 µM): 88.80% | GI50 [18]: 4 µM | GI% ([19]; MCF7 (Breast cancer), 10 µM): 96.94% | GI50 [19]: 2.63 µM | GI% ([20]; BT-549 (Breast cancer), 10 µM): L (GI% > 100) | GI50 [20]: 1.8 µM | GI% ([21]; TK-10 (Renal cancer), 10 µM): 65.04% | GI50 [21]: 4.53 µM | GI% ([22]; HCC-2998 (Colon cancer), 10 µM): 73.20% | GI50 [22]: 3.91 µM | GI% ([23]; MALME-3 M (Melanoma), 10 µM): 99.32% | GI50 [23]: 1.88 µM

O=C(NN=Cc1cccc(O)c1)c1ccc2[nH]c(-c3ccccc3)nc2c1 [8b, N'-(3-Hydroxybenzylidene)-2-phenyl-1H-benzo[d]imidazole-5-carbohydrazide]
inhibition at 10 µM [1, 24]: 8.49% | inhibition at 10 µM [1, 25]: 8.49% | inhibition at 10 µM [2, 26]: 21.6% | inhibition at 10 µM [3, 27]: 9.41% | inhibition at 10 µM [4, 28]: 36.8% | inhibition at 10 µM [5, 29]: < 5% | inhibition at 10 µM [6, 30]: 31.5% | inhibition at 10 µM [7, 31]: < 5% | inhibition at 10 µM [8, 32]: 18.9% | inhibition at 10 µM [9, 33]: 14.4% | inhibition at 10 µM [10, 34]: 10.3% | inhibition at 10 µM ([11]; Homo sapiens, HCT-116): < 5% | inhibition at 10 µM [12, 35]: 5.43% | inhibition at 10 µM [13, 36]: < 5% | inhibition at 10 µM [14, 37]: < 5% | inhibition at 10 µM [15, 38]: < 5% | inhibition at 10 µM [16, 39]: 13.7% | inhibition at 10 µM [17, 40]: < 5% | inhibition at 10 µM [18, 41]: < 5% | inhibition at 10 µM [19, 42]: 43.1% | inhibition at 10 µM [20, 43]: < 5% | inhibition at 10 µM [21, 44]: < 5% | inhibition at 10 µM [22, 45]: < 5% | inhibition at 10 µM [23, 46]: 39.7%

COc1cc(C=NNC(=O)c2ccc3[nH]c(-c4ccc(Cl)cc4)nc3c2)cc(OC)c1OC [8u, 2-(4-Chlorophenyl)-N'-(3,4,5-trimethoxybenzylidene)-1H-benzo[d]imidazole-5-carbohydrazide]
inhibition at 10 µM [1, 24]: > 100% | GI50 ([1]; Homo sapiens): 7.98 µM | inhibition at 10 µM [1, 25]: > 100% | inhibition at 10 µM [2, 26]: 41.1% | GI50 ([2]; Homo sapiens): > 100 µM | inhibition at 10 µM [3, 27]: 97.1% | GI50 ([3]; Homo sapiens): 11.2 µM | inhibition at 10 µM [4, 28]: > 100% | GI50 ([4]; Homo sapiens): 3.76 µM | inhibition at 10 µM [5, 29]: 37.4% | GI50 ([5]; Homo sapiens): 15.6 µM | inhibition at 10 µM [6, 30]: 96% | GI50 ([6]; Homo sapiens): 3.58 µM | inhibition at 10 µM [7, 31]: > 100% | GI50 ([7]; Homo sapiens): 4.4 µM | inhibition at 10 µM [8, 32]: > 100% | GI50 ([8]; Homo sapiens): 3.27 µM | inhibition at 10 µM [9, 33]: 67.8% | GI50 ([9]; Homo sapiens): 3.9 µM | inhibition at 10 µM [10, 34]: > 100% | GI50 ([10]; Homo sapiens): 3.87 µM | GI50 ([11]; Homo sapiens, HCT-116): 3.26 µM | inhibition at 10 µM ([11]; Homo sapiens, HCT-116): > 100% | inhibition at 10 µM [12, 35]: > 100% | GI50 ([12]; Homo sapiens): 4.88 µM | inhibition at 10 µM [13, 36]: > 100% | GI50 ([13]; Homo sapiens): 2.58 µM | inhibition at 10 µM [14, 37]: > 100% | GI50 ([14]; Homo sapiens): 2.84 µM | inhibition at 10 µM [15, 38]: > 100% | GI50 ([15]; Homo sapiens): 1.24 µM | inhibition at 10 µM [16, 39]: > 100% | GI50 ([16]; Homo sapiens): 2.02 µM | inhibition at 10 µM [17, 40]: 70.8% | GI50 ([17]; Homo sapiens): 7.55 µM | inhibition at 10 µM [18, 41]: > 100% | GI50 ([18]; Homo sapiens): 4.67 µM | inhibition at 10 µM [19, 42]: > 100% | GI50 ([19]; Homo sapiens): 0.66 µM | inhibition at 10 µM [20, 43]: > 100% | GI50 ([20]; Homo sapiens): 2.69 µM | inhibition at 10 µM [21, 44]: 62.6% | GI50 ([21]; Homo sapiens): 28.8 µM | inhibition at 10 µM [22, 45]: > 100% | GI50 ([22]; Homo sapiens): 11.1 µM | inhibition at 10 µM [23, 46]: > 100% | GI50 ([23]; Homo sapiens): 1.12 µM
